# Assay results from patent publication US10278873B2, “Absorbent article having a domed section and method of manufacturing same” (UNICHARM CORPORATION, priority 2011, dated 2019).
# Assay: Surface tension of blood containing blood modifying agent, pendant drop method (Example 7)
# Conditions: 0.10 mass % in sheep defibrinated blood; 35° C.
# Procedure: The surface tension of blood containing a blood modifying agent was measured by the pendant drop method, using a Drop Master500 contact angle meter by Kyowa Interface Science Co., Ltd. The surface tension was measured after adding a prescribed amount of blood modifying agent to sheep defibrinated blood, and thoroughly shaking.
# The measurement was accomplished automatically with a device, and the […] γ was determined by the following formula (see FIG. 98). γ=g×ρ×(de)^2×1/H
# The density ρ was measured at the temperatures listed in Table 5, according to JIS K 2249-1995, “Density test methods and density/mass/volume conversion tables”, “5. Vibrating density test method”.
# The measurement was accomplished using a DA-505 by Kyoto Electronics Co., Ltd.
smiles,measurement,value
"CCCCCCCCCCCCOC(=O)CCCCCCCCCCC [No. 2-18, Ester of dodecanoic acid (C12) and dodecyl alcohol (C12)]",Surface tension (mN/m),58.8 mN/m
